Assay results: US20200256869A1, “SYSTEMS AND METHODS FOR THE ASSESSMENT OF G-PROTEIN ACTIVATION” (UNIVERSITÉ DE MONTRÉAL, priority 2017, published 2020)

How the values were obtained:
Assay type in all cases: cell-based
[1] = target: T1, thromboxane receptor (TPαR) (Homo sapiens, UniProt P21731); test: TPαR-mediated Gq activation at the PM, P63RG-RlucII BRET
T1 construct: host or cells: HEK293
T1 sequence (P21731 1-343): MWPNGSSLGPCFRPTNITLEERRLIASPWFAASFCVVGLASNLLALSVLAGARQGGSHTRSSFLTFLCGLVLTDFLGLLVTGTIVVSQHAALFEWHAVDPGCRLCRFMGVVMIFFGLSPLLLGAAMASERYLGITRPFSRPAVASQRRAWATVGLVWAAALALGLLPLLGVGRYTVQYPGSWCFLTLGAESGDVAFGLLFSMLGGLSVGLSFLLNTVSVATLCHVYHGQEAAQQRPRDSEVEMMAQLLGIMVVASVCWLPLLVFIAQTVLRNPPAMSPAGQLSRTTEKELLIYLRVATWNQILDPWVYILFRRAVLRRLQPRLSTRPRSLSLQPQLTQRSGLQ
Text: (§1) FIGS. 6J-6M show DRCs of TPαR ligands on Gq (FIG. 6J), G11 (FIG. 6K), G14 (FIG. 6L) and G15 (FIG. 6M) activation at the PM using P63RG-Rlucll under the optimal conditions determined in FIGS. 6B-6E. HEK293 cells cotransfected with thromboxane receptor (TPαR), P63RG-Rlucll, rGFP-CAAX were stimulated with U46619, I-BOP, CTA2, U51605, I-SAP and SQ 29,558. Results were normalized and presented as % of I-BOP response (between n=3 and n=5) +/−SEM.
(§2) Transfection using Poly(ethylenimine) (PEI): Two days before the experiments, HEK293 cells were washed with PBS containing no calcium or magnesium, detached and transfected with the indicated plasmids using PEI as a transfecting agent (at a ratio of 3 to 1, PEI/DNA). Cells were then directly seeded in 96-well plates pre-treated or not with poly-L-ornithine hydrobromide at a density of 35 000 cells per well. All experiments read in the Spark 10M reader were performed using non-treated plates.
(§3) BRET measurements 48-hours post transfection, cells were washed twice with pre-warmed Tyrode's buffer (140 mM NaCl, 2.7 mM KCl, 1 mM CaCl2, 12 mM NaHCO3, 5.6 mM D-glucose, 0.5 mM MgCl2, 0.37 mM NaH2PO4, 25 mM HEPES, pH 7.4) before being stimulated with various concentrations of ligands at either room temperature (RT) or 37° C., as indicated. The cell-permeable substrate, coelenterazine Purple I was added at a final concentration of 1 μM in Tyrode's buffer for at least 6 min (at 37° C.) to 10min (at RT) before BRET measurements. Measurements were either taken on a Spark 10M reader (Tecan Life Sciences; donor: 360 nm/380 nm & acceptor: 505 nm/570 nm), a LB 941 multimode plate reader (Berthold Technologies; donor: 400/470-nm and acceptor: 515/520-nm filters) or a Synergy Neo (Biotek: (donor: 400/480 nm, acceptor: 515/530 nm). The BRET signal was determined by calculating the ratio of the light intensity emitted by the rGFP (acceptor) over the light intensity emitted by the Rlucll (donor). All the BRET measurements were performed at 37° C. in the Tristar reader (FIGS. 1-2M & FIGS. 2R-7F), at RT in a Spark 10M reader (FIGS. 2N-2Q & FIGS. 8B-8S) or at RT in a Synergy Neo (FIGS. 8T-8X).

[2] = target: T1, thromboxane receptor (TPαR); test: TPαR-mediated G15 activation at the PM, P63RG-RlucII BRET
Text: as §1, §2, §3

[3] = target: T1, thromboxane receptor (TPαR); test: TPαR-mediated G12 activation at the PM, PDZRG-RlucII BRET
Text: (§4) FIGS. 4D and 4E show DRCs of TPαR ligands on G12 (FIG. 4D) and 13 (FIG. 4E) activation at the PM using PDZRG-Rlucll. HEK293 cells cotransfected with thromboxane receptor (TPαR), PDZRG-Rlucll, rGFP-CAAX were stimulated with known full agonists (U46619, I-BOP, CTA2), with a partial agonist (U51605) and the antagonists I-SAP and SQ 29,558. Results were normalized and presented as % of I-BOP response (n=4) +/−SEM.
as §2, §3

[4] = target: T1, thromboxane receptor (TPαR); test: TPαR-mediated G12 activation at the PM, P115RG-RlucII BRET
Text: (§5) FIGS. 5B and 5C show DRCs of TPαR ligands on G12 (FIG. 5B) and G13 (FIG. 5C) activation at the PM using P115RG-Rlucll. HEK293 cells cotransfected with thromboxane receptor (TPαR), P115RG-Rlucll, rGFP-CAAX were stimulated with U46619, I-BOP, CTA2, U51605, I-SAP and SQ 29,558. Results were normalized and presented as % of I-BOP response (n=4) +/−SEM.
as §2, §3

[5] = target: T1, thromboxane receptor (TPαR); test: TPαR-mediated G13 activation at the PM, PDZRG-RlucII BRET
Text: as §4, §2, §3

[6] = target: T1, thromboxane receptor (TPαR); test: TPαR-mediated G14 activation at the PM, P63RG-RlucII BRET
Text: as §1, §2, §3

[7] = target: T1, thromboxane receptor (TPαR); test: TPαR-mediated G11 activation at the PM, P63RG-RlucII BRET
Text: as §1, §2, §3

[8] = target: T1, thromboxane receptor (TPαR); test: TPαR-mediated G13 activation at the PM, P115RG-RlucII BRET
Text: as §5, §2, §3

[9] = target: T2, D5R (Homo sapiens, UniProt P21918); test: Gz activation by D5R, Rap1GAP (SSS-AAA)-RlucII translocation to PM (BRET)
T2 construct: expressed in transfected cells; host or cells: HEK293
Description: (§6) Cells were then directly seeded in 96-well plates pre-treated or not with poly-L-ornithine hydrobromide at a density of 35 000 cells per well. All experiments read in the Spark 10M reader were performed using non-treated plates.
(§7) BRET measurements 48-hours post transfection, cells were washed twice with pre-warmed Tyrode's buffer (140 mM NaCl, 2.7 mM KCl, 1 mM CaCl2, 12 mM NaHCO3, 5.6 mM D-glucose, 0.5 mM MgCl2, 0.37 mM NaH2PO4, 25 mM HEPES, pH 7.4) before being stimulated with various concentrations of ligands at either room temperature (RT) or 37° C., as indicated. The cell-permeable substrate, coelenterazine Purple I was added at a final concentration of 1 μM in Tyrode's buffer for at least 6 min (at 37° C.) to 10min (at RT) before BRET measurements.
(§8) Data Analysis. Estimation of the EC50 values were calculated using the GraphPad® Prism curve fitting program. The curves presented throughout this study, representing the best fits, and were also generated using this GraphPad® Prism program.

[10] = target: T3, D2R (Homo sapiens, UniProt P14416); test: Gz activation by D2R, Rap1GAP (SSS-AAA)-RlucII translocation to PM (BRET)
T3 construct: expressed in transfected cells; host or cells: HEK293
Description: as §6, §7, §8

[11] = target: T4, D1R (Homo sapiens, UniProt P21728); test: Gz activation by D1R, Rap1GAP (SSS-AAA)-RlucII translocation to PM (BRET)
T4 construct: expressed in transfected cells; host or cells: HEK293
Description: as §6, §7, §8

[12] = target: T5, D3R (Homo sapiens, UniProt P35462); test: Gz activation by D3R, Rap1GAP (SSS-AAA)-RlucII translocation to PM (BRET)
T5 construct: expressed in transfected cells; host or cells: HEK293
Description: as §6, §7, §8

[13] = target: T6, Dopamine D4 receptor (D4R) (Homo sapiens, UniProt P21917); details: HEK293, Rap1GAP (SSS-AAA)-RlucII, rGFP-CAAX, Gz, read-out: EC50, Gz activation
T6 construct: signal peptide […]; host or cells: HEK293
T6 sequence (P21917 1-419): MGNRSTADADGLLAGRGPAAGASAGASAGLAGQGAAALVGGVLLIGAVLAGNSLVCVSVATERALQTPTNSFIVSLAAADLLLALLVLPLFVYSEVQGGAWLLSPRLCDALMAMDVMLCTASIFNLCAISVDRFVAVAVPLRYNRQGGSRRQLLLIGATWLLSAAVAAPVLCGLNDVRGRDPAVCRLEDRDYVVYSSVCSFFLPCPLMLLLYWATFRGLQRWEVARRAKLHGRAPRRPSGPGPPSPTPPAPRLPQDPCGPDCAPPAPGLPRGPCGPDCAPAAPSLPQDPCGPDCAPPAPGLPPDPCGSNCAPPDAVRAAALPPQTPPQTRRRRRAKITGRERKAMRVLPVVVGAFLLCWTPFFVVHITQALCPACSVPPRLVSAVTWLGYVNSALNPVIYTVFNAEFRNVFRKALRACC
Description: as §6, §7, §8

T5 sequence (P35462 whole entry): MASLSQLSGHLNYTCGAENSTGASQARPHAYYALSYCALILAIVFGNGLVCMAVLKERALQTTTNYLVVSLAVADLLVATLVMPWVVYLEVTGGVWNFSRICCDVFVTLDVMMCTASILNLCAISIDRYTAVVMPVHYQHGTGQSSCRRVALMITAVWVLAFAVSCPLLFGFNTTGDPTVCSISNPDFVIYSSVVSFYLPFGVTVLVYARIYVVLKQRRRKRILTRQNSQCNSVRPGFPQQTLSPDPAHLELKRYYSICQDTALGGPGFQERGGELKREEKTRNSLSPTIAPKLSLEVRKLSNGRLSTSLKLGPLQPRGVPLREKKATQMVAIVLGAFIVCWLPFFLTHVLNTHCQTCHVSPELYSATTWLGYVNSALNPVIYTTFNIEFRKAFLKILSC
T2 sequence (P21918 whole entry): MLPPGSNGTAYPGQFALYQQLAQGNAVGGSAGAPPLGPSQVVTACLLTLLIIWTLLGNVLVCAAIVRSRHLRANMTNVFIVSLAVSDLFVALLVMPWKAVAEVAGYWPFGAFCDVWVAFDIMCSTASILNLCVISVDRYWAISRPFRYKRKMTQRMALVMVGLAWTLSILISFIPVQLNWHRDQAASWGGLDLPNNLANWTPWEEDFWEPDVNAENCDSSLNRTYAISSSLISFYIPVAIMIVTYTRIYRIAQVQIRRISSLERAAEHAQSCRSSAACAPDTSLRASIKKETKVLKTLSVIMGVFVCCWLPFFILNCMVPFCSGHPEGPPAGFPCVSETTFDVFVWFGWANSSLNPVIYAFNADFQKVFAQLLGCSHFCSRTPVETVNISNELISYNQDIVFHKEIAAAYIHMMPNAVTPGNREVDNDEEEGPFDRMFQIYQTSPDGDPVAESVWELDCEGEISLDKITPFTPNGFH
T4 sequence (P21728 whole entry): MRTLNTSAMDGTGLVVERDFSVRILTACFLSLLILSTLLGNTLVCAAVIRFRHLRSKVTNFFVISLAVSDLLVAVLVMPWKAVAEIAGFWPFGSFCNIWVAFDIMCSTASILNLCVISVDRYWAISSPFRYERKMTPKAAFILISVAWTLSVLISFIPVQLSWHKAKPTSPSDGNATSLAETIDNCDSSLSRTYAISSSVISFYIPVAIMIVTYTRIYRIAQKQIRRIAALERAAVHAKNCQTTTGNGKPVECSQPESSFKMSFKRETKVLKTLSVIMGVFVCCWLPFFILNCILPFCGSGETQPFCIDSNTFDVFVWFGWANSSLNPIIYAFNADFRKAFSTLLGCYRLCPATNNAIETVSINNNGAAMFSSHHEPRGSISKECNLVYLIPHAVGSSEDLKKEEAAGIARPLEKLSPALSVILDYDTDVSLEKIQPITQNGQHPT
T3 sequence (P14416 whole entry): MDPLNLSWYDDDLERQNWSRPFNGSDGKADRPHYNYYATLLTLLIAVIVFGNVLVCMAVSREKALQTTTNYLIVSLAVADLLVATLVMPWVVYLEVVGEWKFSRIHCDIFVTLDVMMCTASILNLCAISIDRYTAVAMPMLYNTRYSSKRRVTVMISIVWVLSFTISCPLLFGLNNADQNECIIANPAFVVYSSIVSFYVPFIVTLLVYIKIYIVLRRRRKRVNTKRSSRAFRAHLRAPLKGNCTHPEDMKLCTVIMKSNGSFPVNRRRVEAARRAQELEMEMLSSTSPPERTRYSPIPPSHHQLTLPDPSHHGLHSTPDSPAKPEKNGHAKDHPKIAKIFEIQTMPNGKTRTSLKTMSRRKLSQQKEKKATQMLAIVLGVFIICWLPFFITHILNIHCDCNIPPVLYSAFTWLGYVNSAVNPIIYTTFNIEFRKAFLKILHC

Compound | Gq activation, agonist character in words [1] | G15 activation, agonist character in words [2] | G12 activation, agonist character in words [3] | G12 activation, agonist character in words [4] | G13 activation, agonist character in words [5] | G14 activation, agonist character in words [6] | G11 activation, agonist character in words [7] | G13 activation, agonist character in words [8] | agonist properties (Gz activation), in words [9] | agonist properties (Gz activation), in words [10] | agonist properties (Gz activation), in words [11] | agonist properties (Gz activation), in words [12] | Gq activation, efficacy ([1]; rGFP-CAAX) | G13 activation, efficacy ([5]; normalized to I-BOP response) | G13 activation, efficacy ([8]; normalized to I-BOP response) | EC50 [13] | EC50 ([12]; HEK293, Rap1GAP (SSS-AAA)-RlucII, rGFP-CAAX, Gz)
O=C(O)CCC/C=C\C[C@@H]1[C@H](CNNC(=O)Nc2ccccc2)[C@H]2CC[C@@H]1O2 [SQ 29,558] | fail to induce significant activation | fail to induce significant activation | not acting as a TPαR agonist | not acting as a TPαR agonist | not acting as a TPαR agonist | fail to induce significant activation | fail to induce significant activation | not acting as a TPαR agonist | – | – | – | – | – | – | – | – | –
CCCCC[C@H](O)/C=C/[C@H]1CC2CC(C2)[C@@H]1C/C=C\CCCC(=O)O [CTA2] | full agonists | full agonists | full agonists | full agonists | full agonists | full agonists | full agonists | full agonists | – | – | – | – | – | – | – | – | –
COc1ccccc1N1CCN(CCN(C(=O)C2CCCCC2)c2ccccn2)CC1 [WAY-100635] | – | – | – | – | – | – | – | – | only showed agonist properties on D4R | only showed agonist properties on D4R | only showed agonist properties on D4R | only showed agonist properties on D4R | – | – | – | – | –
CC1(C)[C@@H]2C[C@H](NS(=O)(=O)c3ccc(I)cc3)[C@@H](C/C=C\CCCC(=O)O)[C@H]1C2 [I-SAP] | fail to induce significant activation | fail to induce significant activation | fails to induce significant G12 activation | neutral | – | fail to induce significant activation | fail to induce significant activation | – | – | – | – | – | 7 % of I-BOP max response | 53 % of Max | 19 % of Max | – | –
Cc1c(C2CCN(CCc3ccccc3)CC2)noc1-c1ccc(Cl)cc1 [L741,742] | – | – | – | – | – | – | – | – | did not show agonist nor inverse properties | – | did not show agonist nor inverse properties | – | – | – | – | – | –
Cc1cccc(NC(=O)CN2CCC(c3ccccn3)CC2)c1 [A412,997] | – | – | – | – | – | – | – | – | – | – | – | – | – | – | – | 0.04 nM | 281 nM
CCCCC[C@H](O)/C=C/[C@@H]1[C@@H](C/C=C\CCCC(=O)O)[C@H]2CO[C@@H]1C2 [U46619] | full agonists | full agonists | full agonists | full agonists | full agonists | full agonists | full agonists | full agonists | – | – | – | – | – | – | – | – | –
O=C(O)CCC/C=C\C[C@@H]1[C@@H](/C=C/[C@@H](O)COc2ccc(I)cc2)[C@H]2CC[C@@H]1O2 [I-BOP] | full agonists | full agonists | full agonists | full agonists | full agonists | full agonists | full agonists | full agonists | – | – | – | – | – | – | – | – | –
